Tests used:
[1] = tested on: Mouse primary HSC; experiment: Profibrogenic gene expression in primary hepatic stellate cells (qRT-PCR); format: cell-based; conditions: for Collagen-1 expression / TGF-β expression / TIMP-1 expression / αSMA expression: two concentrations, 72 hrs
Text: The AML12 (mouse hepatocyte) cells were obtained from the BCRC (Bioresource Collection and Research Center) and cultured in Dulbecco's modified Eagle media (DMEM, Gibco by Invitrogen) with 1% antibiotic antimycotic (Gibco by Invitrogen) and 15% fetal bovine serum (Gibco by Invitrogen). The human Hepatic Stellate Cell, HSC cell line was obtained from the ScienCell Research Laboratory (USA) and cultured in complete medium, Stellate Cell Medium (ScienCell Research Laboratory) with 2% fetal bovine serum (ScienCell Research Laboratory), 1% stellate cell growth supplement (ScienCell Research Laboratory) and 1% penicillin/streptomycin solution (ScienCell Research Laboratory). It is well known that TGF-β1 can activation of HSC, which was used as a positive control, the HSC cells were seeded in plate for 24 h and then the cells were replaced with medium containing 10 ng TGF-β1 (PeproTech, USA). For primary hepatic stellate cell isolation, C57BL/6 mice were anesthetized by intraperitoneal injection of ketamine and xylazine. […] Mouse livers were perfused in situ with 0.5 mM EGTA containing calcium-free salt solution (8 ml/min, 37° C. for 5 minutes), followed by perfusion with 2-step 0.05% collagenase D and pronase containing buffer (Roche Molecular Biochemicals, Indianapolis, Ind.) for 5 and 10 minutes, respectively. The harvested liver was minced gently on a Petri dish and additional incubation with protease containing buffer at 37° C. for 25 minutes. Then, the liver was filtered with 70 μm cell strainer. Cells were centrifuged and collected followed by 8.2% Nycodenz (Accurate Chemical and Scientific Corp.). The cell lines were cultured at 37° C. in a humidified atmosphere containing 5% CO2.
Exponentially growing cells were harvested and seeded in a 6-well microtiter plate. Each well of cells were collected to eppendrof in 1 mL of TRIzol buffer (Invitrogen, Carlsbad, Calif., USA), and then mixed with 0.5 mL chloroform/isoamyl alcohol (24:1), eppendrofs were centrifuged at 12,000×g for 10 min at 4° C. The supernatant was transferred to a fresh tube, and isopropanol was added, mix well and stored at −80° C. overnight. The reaction mixture was centrifuged at 12,000×g for 30 min at 4° C. to produce a rude RNA pallet, the pellet was washed with 70% ethanol and air-dried. The concentrations of total RNA were measured by absorbance at 260 nm using a NanoDrop ND-1000 (NanoDrop, USA).
Reverse transcription reaction was performed using a commercially available set of High Capacity RNA-to-cDNA Kit (Applied Biosystems, USA). cDNA was prepared from 2 μg of total RNA per 20 μl reaction, according to the manufacturer's instructions—37° C. for 60 minutes, 95° C. for 5 minutes, and hold at 4° C. The resulting cDNA was to a final concentration of 100 ng/μl and constituted a matrix in further experiments.
Amplification and detection the gene expression by real-time PCR were performed using StepOne plus Real-time PCR System (Applied Biosystems, USA). Samples were assayed in a 10 μl reaction mixture containing 2 μl of template DNA, 5 μl of 2× TaqMan PCR Master Mix (Applied Biosystems, Life Technologies, Foster City, Calif., USA), 0.5 μl of 20× assay mix containing probe, forward and reverse primer (Applied Biosystems, Life Technologies, Foster City, Calif., USA), whereby qPCR targets with the following information were used: (a) α-SMA, Assay ID Rn01759928_g1, (b) TIMP-1, Assay ID Rn00587558_m1, (c) TGF-β1, Assay ID Rn00572010_m1, (d) Collagen I, Assay ID Rn 01463838_m1, (e) GAPDH, Assay ID Rn1462662_g1. To control variation in mRNA concentration, all results were normalized to the housekeeping gene, GAPDH. Relative quantitation was performed using the comparative ΔΔCt method according to the manufacturer's instructions. The cycling conditions used were as follows: 50° C. for 2 min, 95° C. for 10 min followed by 40 cycles of 95° C. for 15 s and 60° C. for 1 min each. […]

[2] = tested on: cirrhotic animals; experiment: Liver fibrosis: hydroxyproline content in the liver and Sirius red staining, DEN cirrhotic animal model; conditions: compound B 7 mg/kg, compound C 14 mg/kg, ACM 320 mg/kg, vs control group
[3] = tested on: α-SMA and TGF-β1; experiment: Western blot of α-SMA and TGF-β1 in rabbit ear scar tissue; format: in vivo, New Zealand white rabbits; conditions: 1% w/v topical; for level of TGF-β1 expression (Western blot): day 14, compared with the control groups; for levels of α-SMA expression (Western blot): relative to the control group
Description: The rabbit ear model of hypertrophic scarring was established. In brief, 12 New Zealand white rabbits, weighing 2.5 to 3.0 kg, were prepared for wounding under sterile conditions. Four 1 cm full thickness circular wounds were created down to the cartilage on the ventral side of each ear using a 1 cm punch biopsy. The perichondrial membrane was then dissected off the cartilage using a surgical blade. The test agents including compound B, C and ACM ethanol extract were applied to the wounds of the experimental group ([…] to each wound) every day in concentrations of 1% w/v for 14 days, while the control group received equal amounts of 1% w/v saline.
The scar tissues were lysed; then the protein samples were denatured and then separated on 10.6% polyacrylamide gels, and transferred to the polyvinylidene difluoride membrane. The membranes were incubated in TBS containing 5% nonfat milk and 0.05% Tween-20 for 1 h at room temperature and blotted with primary antibodies (dilution 1:300) at 4° C. overnight. The membranes were washed with TBST for 15 min the next day. Subsequently, the membranes were incubated with horseradish peroxidase-conjugated affinipure goat anti-rabbit antibody (dilution 1:3000) for 1 h at room temperature and washed with TBST for 21 min. The membranes were then detected using ECL. The western blot results were further analyzed with Quantity One software 4.1.1 (Bio-Rad, Hercules, Calif.)

CC(C)=CCOc1ccc(C2=C(CC(C)C)C(=O)NC2=O)cc1 [Compound B, 3-isobutyl-4-[4-(3-methyl-2-butenyloxy)phenyl]-1H-pyrrol-2,5-dione]
anti-fibrosis effect on primary HSC (summary) [1]: anti-fibrosis effect
Collagen-1 expression [1]: dose-dependent effect
TGF-β expression [1]: dose-dependent effect
TIMP-1 expression [1]: dose-dependent effect
αSMA expression [1]: dose-dependent effect
liver cirrhosis (hydroxyproline levels and Sirius red-positive areas) [2]: markedly ameliorated
level of TGF-β1 expression (Western blot) [3]: significantly decreased
levels of α-SMA expression (Western blot) [3]: decreased

CC(C)=CCOc1ccc(C2=C(CC(C)C)C(=O)N(O)C2=O)cc1 [Compound C, 3-isobutyl-4-[4-(3-methyl-2-butenyloxy)phenyl]-1H-pyrrol-1-ol-2,5-dione]
anti-fibrosis effect on primary HSC (summary) [1]: anti-fibrosis effect
Collagen-1 expression [1]: dose-dependent effect
TGF-β expression [1]: dose-dependent effect
TIMP-1 expression [1]: dose-dependent effect
αSMA expression [1]: dose-dependent effect
liver cirrhosis (hydroxyproline levels and Sirius red-positive areas) [2]: markedly ameliorated
level of TGF-β1 expression (Western blot) [3]: significantly decreased
levels of α-SMA expression (Western blot) [3]: decreased
